Laboratory results as given in patent US20060293228A1, “Therapeutic compositions and methods using transforming growth factor-beta mimics” (priority 2005, published 2006).
Where a SMILES comes first, the peptide text is derived from it. Where no end group is shown, it is not given here.

How the values were obtained:
insect bite = test system: insect bite; set-up: species or system human; settings: in vivo
From the text: A person reported that they were very allergic to insect bites, which usually made a large red welt, then turned purple and looked like a severe bruise, lasting for about a week.

[1] = test system: contact dermatitis on both hands; set-up: species or system human; settings: in vivo
From the text: A person had suffered from contact dermatitis on both hands for approximately 5 to 6 years. Signs of dermatitis, such as rash, itching, crustiness, thin skin (steroids) when flexed hand would start bleeding where lines, were apparent over approximately 100 cm^2 of the right and left hands, respectively (all of palm and fingers). The individual applied a lotion comprising cytomodulin (SEQ ID NO: 1) at a concentration of about approximately 0.01% once per day at night. The amount applied was about 0.25 ml per hand. After 3-4 days healing of the dermatitis was apparent. In approximately two weeks the dermatitis was completely healed.

[2] = test system: Mv-1-Lu mink lung epithelial cells; test: Inhibition of DNA synthesis (3H-thymidine incorporation) of Mv-1-Lu mink lung epithelial cells; format: cell-based; settings: cytomodulin at the same concentration
Procedure: The effect of TGF-β and cytomodulin were evaluated by determining the rate of [1H]thymidine incorporation into total acid-insoluble DNA and cell number. See generally, Sampath et al., J. Biol. Chem., 267, pp. 20352-20362 (1992). DNA synthesis rates were determined in triplicate cultures after 24 hour treatment with various concentrations (10^-9 M to 10^-6 M) of either TGF-β or cytomodulin (which was synthesized by the Merrifield method) by adding [methyl-3H]thymidine (2 uCi/ml, 80 Ci/mmol) for 6 hours before the termination of the culture. Incorporation was terminated by aspiration of the medium, and after washing three times with phosphate-buffered saline, the trichloroacetic acid (10%)-precipitated radioactive DNA was extracted with 1.0% (w/v) sodium dodecyl sulfate, 0.1 M NaOH and quantitated by liquid scintillation counting. For cell number determination, 1×10^5 cells were plated in flasks in MEM containing 10% FBS, and after 24 hours, the growth medium was replaced with serum-free medium containing various conceptions of TGF-β and cytomodulin. Triplicate cultures were harvested every 24 hours for the duration of 7 days, and the cell number was determined by counting cells released by trypsin digestion in a fixed volume hemacytometer.
The numbers shown at the various concentration are the ratio of the inhibition rate of the peptide being tested over the inhibition rate of cytomodulin (SEQ ID NO: 1) at the same concentration.

NRK-49 F fibroblasts = test: Growth and colony formation by NRK-49 F fibroblasts in soft agar; format: cell-based
Procedure: The original assay for TGF-β, the ability to promote anchorage independent growth of normal fibroblasts is still one of the hallmarks of TGF-β activity. NRK49 F fibroblasts were grown at 37° C. in DEM supplemented with 10% fetal calf serum. […] To this, either 100 nM TGF-β (positive control) or 100 nM cytomodulin was added. NRK49 F fibroblasts (5×10^4 cells/ml) were mixed with 0.3% agar were plated on the bottom of 35 mm culture dishes. Colony formation was observed starting on day 3 of culture.

| negative effects of application of the lotion [1] | Molecule | adverse effects (insect bite) | Inhib by new peptide/Inhib by cytomodulin (3H-thymidine incorporation) ([2]; 10 nM) | Inhib by new peptide/Inhib by cytomodulin (3H-thymidine incorporation) ([2]; 100 nM) | Inhib by new peptide/Inhib by cytomodulin (3H-thymidine incorporation) ([2]; 1 nM) | Inhib by new peptide/Inhib by cytomodulin (3H-thymidine incorporation) ([2]; 1000 nM) | growth and colony formation of NRK-49 F cells in soft agar (in words) (NRK-49 F fibroblasts) |
| --- | --- | --- | --- | --- | --- | --- | --- |
| No negative effects | CC(C)[C@H](NC(=O)[C@H](CC(N)=O)NC(=O)[C@H](C)N)C(=O)N[C@@H](C)C(=O)N[C@@H](CCC(=O)O)C(=O)N[C@@H](CC(N)=O)C(=O)N[C@@H](C)C(=O)O [cytomodulin, Ala-Asn-Val-Ala-Glu-Asn-Ala] (H-ANVAENA-OH) | no adverse effects | – | – | – | – | – |
| – | A-N-V-A-E-K (ANVAEK) [SEQ ID NO: 15] | – | 0.80 | 1.00 | – | – | – |
| – | L-I-A-D-A-K (LIADAK) [SEQ ID NO: 9] | – | 0.87 | 1.14 | 0.45 | 1.25 | – |
| – | L-I-A-E-A-A (LIAEAA) [SEQ ID NO: 11] | – | 1.00 | 1.17 | 1.16 | 1.85 | – |
| – | L-I-A-G-E-G (LIAGEG) [SEQ ID NO: 14] | – | 0.85 | 1.41 | 0.66 | 1.88 | – |
| – | L-I-A-G-G-E (LIAGGE) [SEQ ID NO: 13] | – | 1.33 | 1.45 | 1.10 | 1.90 | – |
| – | L-I-A-K-G-K (LIAKGK) [SEQ ID NO: 16] | – | 0.65 | 0.67 | – | – | – |
| – | L-I-A-N-A-K (LIANAK) [SEQ ID NO: 10] | – | 2.00 | 1.43 | 1.70 | 3.05 | – |
| – | L-I-A-Q-A-K (LIAQAK) [SEQ ID NO: 12] | – | 1.10 | 0.80 | 0.90 | 1.56 | – |
| – | LIAEAK [L2] | – | – | – | – | – | promoted the growth |
| – | LIAPEA [L1] | – | – | – | – | – | promoted the growth |
